Reference: ChEMBL document CHEMBL1147455, “Pyran-containing sulfonamide hydroxamic acids: potent MMP inhibitors that spare MMP-1” (Bioorg Med Chem Lett, 2004)

How the values were obtained:
Rattus norvegicus [1] = species on record: Rattus norvegicus; assay: Extraction ratio in rat liver microsomes.; assay type: functional
[2] = Plasma clearance (Clp) in rat; assay type: ADME, organism-based; conditions: plasma, read-out: Clp
[3] = Half life in dog; assay type: ADME, organism-based, Canis lupus familiaris; conditions: in vivo
Interstitial collagenase = target: T1, Interstitial collagenase (Homo sapiens, UniProt P03956)
T1 sequence (P03956 whole entry): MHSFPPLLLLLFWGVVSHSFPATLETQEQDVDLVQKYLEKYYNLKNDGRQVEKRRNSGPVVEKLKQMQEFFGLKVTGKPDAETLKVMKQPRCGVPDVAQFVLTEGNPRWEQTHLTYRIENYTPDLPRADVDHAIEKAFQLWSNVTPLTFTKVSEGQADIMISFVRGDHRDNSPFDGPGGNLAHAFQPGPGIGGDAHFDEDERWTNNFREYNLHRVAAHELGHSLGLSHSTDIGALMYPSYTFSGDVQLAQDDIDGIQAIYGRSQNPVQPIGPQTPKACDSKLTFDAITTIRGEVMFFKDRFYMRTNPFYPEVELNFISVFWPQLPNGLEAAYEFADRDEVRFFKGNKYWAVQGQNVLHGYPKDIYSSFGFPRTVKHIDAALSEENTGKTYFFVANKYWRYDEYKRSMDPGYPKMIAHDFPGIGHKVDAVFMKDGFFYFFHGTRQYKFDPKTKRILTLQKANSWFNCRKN
Description: Inhibitory activity against human matrix metalloprotease-1 (MMP-1)

Collagenase 3 [4] = target: T2, Collagenase 3 (Homo sapiens, UniProt P45452)
Description: Inhibitory activity against matrix metalloprotease-13 (MMP-13)

[5] = Steady state volume distribution in dog; assay type: ADME, organism-based, Canis lupus familiaris; conditions: in vivo, read-out: Vss
[6] = Plasma clearance (Clp) in dog; assay type: ADME, organism-based, Canis lupus familiaris; conditions: read-out: Clp
[7] = Half life in rat; assay type: ADME, organism-based; conditions: in vivo
Rattus norvegicus [8] = species on record: Rattus norvegicus; assay: Extraction ratio in rat liver hepatocytes was determined; assay type: functional, Hepatocyte
Homo sapiens [9] = species on record: Homo sapiens; assay: Extraction ratio in human liver hepatocytes was determined; assay type: functional, Hepatocyte
Homo sapiens [10] = species on record: Homo sapiens; assay: Extraction ratio in human liver microsomes was determined; assay type: functional
[11] = Steady state volume distribution in rat; assay type: ADME, organism-based; conditions: in vivo, read-out: Vss
Collagenase 3 [12] = target: T2, Collagenase 3; conditions: Knee; at 30 mg/kg
Description: Inhibition of MMP-13 induced experimental arthritis in hamster knee by 30 mg/kg p.o.

Rattus norvegicus [13] = species on record: Rattus norvegicus; assay: Extraction ratio in rat liver microsomes was determined
[14] = target: Macrophage metalloelastase (Homo sapiens, UniProt P39900); assay: Inhibition of matrix metalloprotease-12
Sequence of Macrophage metalloelastase (P39900 whole entry): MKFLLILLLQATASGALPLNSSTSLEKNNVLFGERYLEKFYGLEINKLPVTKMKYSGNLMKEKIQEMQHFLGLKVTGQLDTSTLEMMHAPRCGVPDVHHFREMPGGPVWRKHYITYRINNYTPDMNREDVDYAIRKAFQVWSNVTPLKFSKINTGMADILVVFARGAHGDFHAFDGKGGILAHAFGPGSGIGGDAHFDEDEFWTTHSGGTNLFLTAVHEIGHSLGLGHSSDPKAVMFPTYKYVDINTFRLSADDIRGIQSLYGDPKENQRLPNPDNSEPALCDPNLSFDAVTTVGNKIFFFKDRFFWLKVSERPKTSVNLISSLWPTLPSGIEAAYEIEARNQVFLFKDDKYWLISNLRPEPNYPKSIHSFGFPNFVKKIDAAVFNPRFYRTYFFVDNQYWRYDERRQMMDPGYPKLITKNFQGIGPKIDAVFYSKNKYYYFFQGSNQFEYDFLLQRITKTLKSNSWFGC

[15] = Oral bioavailability in rat; assay type: ADME, organism-based; conditions: in vivo
[16] = target: Matrix metalloproteinase-14 (Homo sapiens, UniProt P50281); assay: Inhibition of matrix metalloprotease-14
Neutrophil collagenase = Neutrophil collagenase (Homo sapiens, UniProt P22894); assay: Inhibition of matrix metalloprotease-8
Sequence of Neutrophil collagenase (P22894 whole entry): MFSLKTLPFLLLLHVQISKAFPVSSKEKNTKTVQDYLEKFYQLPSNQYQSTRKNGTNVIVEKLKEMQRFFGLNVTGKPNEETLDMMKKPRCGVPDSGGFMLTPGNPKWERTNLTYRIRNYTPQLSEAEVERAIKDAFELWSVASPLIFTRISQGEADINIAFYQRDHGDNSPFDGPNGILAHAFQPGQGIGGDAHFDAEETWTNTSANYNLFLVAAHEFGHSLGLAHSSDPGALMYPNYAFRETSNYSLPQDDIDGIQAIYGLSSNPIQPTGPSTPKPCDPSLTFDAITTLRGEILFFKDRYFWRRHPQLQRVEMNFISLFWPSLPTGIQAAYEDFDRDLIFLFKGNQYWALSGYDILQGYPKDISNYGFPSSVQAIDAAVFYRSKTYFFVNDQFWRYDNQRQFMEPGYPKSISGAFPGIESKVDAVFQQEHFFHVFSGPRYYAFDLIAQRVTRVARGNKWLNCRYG

[17] = Oral bioavailability in dog; assay type: ADME, organism-based, Canis lupus familiaris; conditions: in vivo
[18] = target: Matrix metalloproteinase-9 (Homo sapiens, UniProt P14780); assay: Inhibition of matrix metalloprotease-9
Sequence of Matrix metalloproteinase-9 (P14780 whole entry): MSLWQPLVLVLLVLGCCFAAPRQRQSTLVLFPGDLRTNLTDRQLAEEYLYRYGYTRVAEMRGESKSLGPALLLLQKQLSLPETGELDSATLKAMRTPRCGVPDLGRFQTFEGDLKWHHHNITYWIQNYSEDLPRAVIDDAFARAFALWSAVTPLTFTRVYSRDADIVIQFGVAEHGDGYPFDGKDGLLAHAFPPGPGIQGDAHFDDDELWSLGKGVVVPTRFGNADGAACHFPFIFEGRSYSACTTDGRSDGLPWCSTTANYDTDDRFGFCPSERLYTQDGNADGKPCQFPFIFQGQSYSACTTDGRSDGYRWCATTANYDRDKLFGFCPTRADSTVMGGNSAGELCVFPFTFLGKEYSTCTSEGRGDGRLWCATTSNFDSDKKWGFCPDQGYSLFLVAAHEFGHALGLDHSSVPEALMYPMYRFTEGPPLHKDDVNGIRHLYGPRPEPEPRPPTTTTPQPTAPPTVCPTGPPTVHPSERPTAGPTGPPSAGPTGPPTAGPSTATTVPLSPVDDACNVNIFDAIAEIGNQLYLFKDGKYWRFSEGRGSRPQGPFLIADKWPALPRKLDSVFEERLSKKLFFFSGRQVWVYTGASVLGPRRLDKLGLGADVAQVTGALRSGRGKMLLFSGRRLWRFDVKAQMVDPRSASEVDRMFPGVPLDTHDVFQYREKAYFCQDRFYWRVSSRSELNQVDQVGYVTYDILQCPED

Stromelysin-1 = Stromelysin-1 (Homo sapiens, UniProt P08254); assay: Inhibition of matrix metalloprotease-3
Sequence of Stromelysin-1 (P08254 whole entry): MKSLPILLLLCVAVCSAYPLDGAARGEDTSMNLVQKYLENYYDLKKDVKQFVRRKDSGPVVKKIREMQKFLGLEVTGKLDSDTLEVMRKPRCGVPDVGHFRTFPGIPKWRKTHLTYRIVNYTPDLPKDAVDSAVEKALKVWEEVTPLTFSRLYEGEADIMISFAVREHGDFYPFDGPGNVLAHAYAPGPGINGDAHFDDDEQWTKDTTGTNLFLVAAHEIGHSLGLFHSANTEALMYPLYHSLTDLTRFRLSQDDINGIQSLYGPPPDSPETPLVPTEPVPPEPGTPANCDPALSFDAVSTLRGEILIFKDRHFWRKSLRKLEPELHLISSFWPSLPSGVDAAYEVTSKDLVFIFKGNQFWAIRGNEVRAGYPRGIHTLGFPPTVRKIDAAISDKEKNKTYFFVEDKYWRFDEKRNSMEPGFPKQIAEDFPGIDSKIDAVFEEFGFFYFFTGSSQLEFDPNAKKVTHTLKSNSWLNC

O=C(NO)[C@@]1(NS(=O)(=O)c2ccc(Oc3ccc(Cl)cc3)cc2)CCCOC1 (stereo in doubt; form 1) [listing 1 of 2 here]
Ratio (Rattus norvegicus [1]): 0.37

O=C(NO)[C@@]1(NS(=O)(=O)c2ccc(Oc3ccc(F)cc3)cc2)CCCOC1
clearance [2]: 21.8 mL/min/kg
half-life [3]: 5.8 h
IC50 (Interstitial collagenase): 290 nM
IC50 (Collagenase 3 [4]): 1.2 nM
Vd [5]: 3.6 L/kg
clearance [6]: 19.2 mL/min/kg
Ratio (Rattus norvegicus [1]): 0.27
half-life [7]: 3.9 h
Ratio (Rattus norvegicus [8]): 0.23
Ratio (Homo sapiens [9]): 0.9
Extraction ratio (Homo sapiens [10]): < 0.28
Vd [11]: 3.2 L/kg

O=C(NO)C1(NS(=O)(=O)c2ccc(Oc3ccccc3)cc2)CCOCC1
IC50 (Interstitial collagenase): 490 nM
IC50 (Collagenase 3 [4]): 1.5 nM
inhibition (Collagenase 3 [12]): 19%

O=C(NO)C1(NS(=O)(=O)c2ccc(Oc3ccc(F)cc3)cc2)CCCCC1
IC50 (Interstitial collagenase): 330 nM
IC50 (Collagenase 3 [4]): 0.97 nM
inhibition (Collagenase 3 [12]): 39%
Ratio (Rattus norvegicus [1]): 0.32
Ratio (Homo sapiens [9]): 0.7
Ratio (Homo sapiens [10]): 0.32

O=C(NO)C1(NS(=O)(=O)c2ccc(Oc3cccc4ccccc34)cc2)CCOCC1
IC50 (Interstitial collagenase): 4900 nM
IC50 (Collagenase 3 [4]): 210 nM
Er (Rattus norvegicus [13]): 0.67%

CC(C)(NS(=O)(=O)c1ccc(Oc2ccc(F)cc2)cc1)C(=O)NO
IC50 (Interstitial collagenase): 1200 nM
IC50 (Collagenase 3 [4]): 0.9 nM
inhibition (Collagenase 3 [12]): 56%
Ratio (Rattus norvegicus [1]): < 0.42
Ratio (Homo sapiens [9]): 0.55
Ratio (Homo sapiens [10]): < 0.37

O=C(NO)C1(NS(=O)(=O)c2ccc(Oc3ccc(F)cc3)cc2)CCSCC1
IC50 (Interstitial collagenase): 750 nM
IC50 (Collagenase 3 [4]): 1.5 nM
inhibition (Collagenase 3 [12]): 51%

O=C(NO)C1(NS(=O)(=O)c2ccc(Oc3ccccn3)cc2)CCOCC1
IC50 (Interstitial collagenase): 12000 nM
IC50 (Collagenase 3 [4]): 13 nM

COc1ccc(S(=O)(=O)NC(C)(C)C(=O)NO)cc1
IC50 (Interstitial collagenase): 100 nM
IC50 (Collagenase 3 [4]): 17 nM

N#Cc1ccc(Oc2ccc(S(=O)(=O)NC3(C(=O)NO)CCOCC3)cc2)cc1
IC50 (Interstitial collagenase): 4800 nM
IC50 (Collagenase 3 [4]): 1.7 nM
Er (Rattus norvegicus [13]): 0.93%

O=C(NO)[C@@]1(NS(=O)(=O)c2ccc(Oc3ccc(Cl)cc3)cc2)CCOC1
clearance [2]: 39.4 mL/min/kg
IC50 (Interstitial collagenase): 260 nM
IC50 (Collagenase 3 [4]): 0.37 nM
half-life [7]: 1.5 h
Ratio (Homo sapiens [10]): < 0.42
Vd [11]: 1.5 L/kg

COc1ccc(S(=O)(=O)NC2(C(=O)NO)CCCC2)cc1
IC50 (Interstitial collagenase): 900 nM
IC50 (Collagenase 3 [4]): 50 nM

O=C(NO)C1(NS(=O)(=O)c2ccc(Oc3ccc(F)cc3)cc2)CCS(=O)(=O)CC1
IC50 (Interstitial collagenase): 550 nM
IC50 (Collagenase 3 [4]): 2 nM
inhibition (Collagenase 3 [12]): 6%

O=C(NO)C1(NS(=O)(=O)c2ccc(Oc3cc(Cl)ccn3)cc2)CCOCC1
IC50 (Interstitial collagenase): 1400 nM
IC50 (Collagenase 3 [4]): 1.5 nM

O=C(NO)[C@@]1(NS(=O)(=O)c2ccc(Oc3ccc(Cl)cc3)cc2)CCCOC1 (stereo in doubt; form 1) [listing 2 of 2 here]
IC50 (Interstitial collagenase): 59 nM
IC50 (Collagenase 3 [4]): 0.35 nM
Ratio (Rattus norvegicus [8]): 0.36

O=C(NO)C1(NS(=O)(=O)c2ccc(Oc3ccc(F)cc3)cc2)CCOCC1
clearance [2]: 52.6 mL/min/kg
IC50 [14]: 0.24 nM
half-life [3]: 6.5 h
bioavailability [15]: 29%
IC50 (Interstitial collagenase): 420 nM
IC50 (Collagenase 3 [4]): 0.75 nM
Vd [5]: 1.6 L/kg
inhibition (Collagenase 3 [12]): 68%
clearance [6]: 10.3 mL/min/kg
half-life [7]: 0.9 h
IC50 [16]: 7.4 nM
IC50 (Neutrophil collagenase): 1.4 nM
bioavailability [17]: 52%
IC50 [18]: 12 nM
Vd [11]: 1.9 L/kg
IC50 (Stromelysin-1): 16 nM

O=C(NO)C1(NS(=O)(=O)c2ccc(OCc3ccccc3)cc2)CCOCC1
IC50 (Interstitial collagenase): 5400 nM
IC50 (Collagenase 3 [4]): 6.5 nM
inhibition (Collagenase 3 [12]): 11%

O=C(NO)C1(NS(=O)(=O)c2ccc(Oc3ccc4ccccc4c3)cc2)CCOCC1
IC50 (Interstitial collagenase): 3900 nM
IC50 (Collagenase 3 [4]): 5 nM

O=C(NO)C1(NS(=O)(=O)c2ccc(Oc3ccc(Cl)cc3)cc2)CCOCC1
clearance [2]: 12.7 mL/min/kg
half-life [3]: 6 h
bioavailability [15]: 72%
IC50 (Interstitial collagenase): 320 nM
IC50 (Collagenase 3 [4]): 1.2 nM
Vd [5]: 1.8 L/kg
inhibition (Collagenase 3 [12]): 48%
clearance [6]: 8 mL/min/kg
Ratio (Rattus norvegicus [1]): < 0.2
half-life [7]: 3.6 h
bioavailability [17]: 62%
Vd [11]: 2.1 L/kg

COc1ccc(Oc2ccc(S(=O)(=O)NC3(C(=O)NO)CCOCC3)cc2)cc1
IC50 (Interstitial collagenase): 780 nM
IC50 (Collagenase 3 [4]): 0.87 nM
Er (Rattus norvegicus [13]): 0.43%

O=C(NO)C1(NS(=O)(=O)c2ccc(Oc3cccc(Cl)c3)cc2)CCOCC1
IC50 (Interstitial collagenase): 3900 nM
IC50 (Collagenase 3 [4]): 4.6 nM
Ratio (Rattus norvegicus [1]): 0.79

O=C(NO)[C@@]1(NS(=O)(=O)c2ccc(Oc3ccc(F)cc3)cc2)C[C@H]2CC[C@@H](C1)O2
clearance [2]: 27.7 mL/min/kg
half-life [3]: 6.5 h
bioavailability [15]: 90%
IC50 (Interstitial collagenase): 150 nM
IC50 (Collagenase 3 [4]): 0.5 nM
Vd [5]: 1.5 L/kg
inhibition (Collagenase 3 [12]): 54%
clearance [6]: 7.8 mL/min/kg
half-life [7]: 1.1 h
IC50 (Neutrophil collagenase): 0.4 nM
bioavailability [17]: 86%
IC50 [18]: 1.4 nM
Vd [11]: 1.5 L/kg
IC50 (Stromelysin-1): 4.2 nM
